According to PMC9537177, “A VEGFR targeting peptide-drug conjugate (PDC) suppresses tumor angiogenesis in a TACE model for hepatocellular carcinoma therapy” (Cell Death Discovery, 2022):
Read-outs that look alike come from different tables or passages of the source. Square brackets hold non-standard residues; d marks the D form. Peptide text beside a SMILES is read from it. Aib = CC(C)(N)C(=O)O

Key:
VX2 liver tumor = experiment: VX2 rabbit liver tumor model with TAE/TACE: tumor growth, necrosis, apoptosis, proliferation, angiogenesis; format: in vivo, New Zealand white rabbits; details: for mean tumor volume at 7 days after TAE procedure: 0.5 mL lipiodol emulsion into tumor-feeding artery, QR-KLU 4 mg/kg; for mean tumor volume at 7 days after TAE procedure / tumor growth rate (V7/V0 × 100%) / mean tumor necrosis rate: DOX 2 mg/kg, KLU 4 mg/kg; for mean tumor volume at 7 days after TAE procedure / mean tumor volume one day before TAE procedure: MR images, 24 rabbits evenly in four groups; for mean tumor volume at 7 days after TAE procedure / mean tumor necrosis rate / mean tumor volume one day before TAE procedure: mean ± SD; for tumor growth rate (V7/V0 × 100%): 7 days after TAE, NS group 276.4%; for tumor growth rate (V7/V0 × 100%) / mean tumor necrosis rate: QR-KLU 4 mg/kg in lipiodol; for mean proportion of apoptotic cells in tumor (TUNEL) / mean proportion of proliferating cells in tumor (Ki67) / mean tumor necrosis rate: 7 days after treatment; for mean proportion of apoptotic cells in tumor (TUNEL) / mean proportion of proliferating cells in tumor (Ki67): versus NS group; for mean tumor necrosis rate: H&E staining; for mean tumor volume one day before TAE procedure: baseline, V = a*b^2/2, VX2 rabbits
Experimental: New Zealand white rabbits (2.5-3 kg) were purchased from the Laboratory Animal Center of Tongji Medical College of Huazhong University of Science and Technology (Wuhan, China). All the animal experimental procedures were performed in accordance with the National Institutes of Health Guidelines for the Care and Use of Laboratory Animals and the protocol was approved by the Ethics Committee of Tongji Medical College, Huazhong University of Science and Technology. Blinding was not possible in most animal experiments. The rabbit VX2 liver tumor model was established according to the method reported by Qian K et al.. […] The acquisition parameters of the sequence are as follows: […], TR 2750 ms, TE 65 ms, the field of view 120 mm × 120 mm, Slice thickness 3 mm in the transverse plane, matrix 152 × 152. The multi-vane technique was used to reduce artifacts and improve image quality, acquisition time 3 min […]; […] Seven days after TACE procedure, tumor size was evaluated again by MR scan and the tumor volume was calculated by formula: V = a * b^2/2 (a, long diameter; b, short diameter). And tumor growth rate was calculated by formula: […] Finally, the VX2 rabbits were sacrificed and the tumor tissues were harvested for biochemical analysis and histopathological examination. […] The IHC staining procedures were performed as previously described. Briefly, the sections were blocked in 3% H2O2 for 25 min and then incubated with goat serum for 15 min. Subsequently, the sections were first washed and incubated with anti-VEGF (1:200, Abcam, USA), and anti-CD31 (1:20; Abcam, USA) overnight at 4 °C, and then incubated with second antibody (Abcam, USA) at 37 °C for 50 min. Next, the sections were stained with 3, 3'-diaminobenzidine (DAB, Service bio, Wuhan […] Biotechnology Co., Ltd., China) for 6 min and rinsed and stained in hematoxylin for 30 s. The sections were then dehydrated in gradient alcohol and sealed in neutral resins. VEGF expression was assessed by semiquantitative IHC based on staining intensity and density, the staining intensity was scored as 0 (negative), 1 (weak), 2 (moderate), and 3 (strong), while the staining density was scored on the basis of the percentage of positively stained cells: 0 (0%), 1 (1-25%), 2 (26-50%), 3 (51-75%), and 4 (76-100%). The total VEGF IHC score was calculated by multiplying the intensity score by the density score. Microvessel density (MVD) was calculated according to the method developed by Weidner et al.

HUVEC cells [1] = experiment: Wound-healing assay of HUVEC cells; format: cell-based, human; details: 24 h
Experimental: Wound-healing assay was performed according to the protocols reported by Liang et al.. Briefly, HUVEC cells were plated into 12-well plate and grown to create a confluent monolayer. The monolayer was grazed in a straight line to create a “scratch” with a pipette tip. Markings were created close to the scratch to be used as reference points. Then cells were treated with different peptides for 24 h at 37 °C. Images were collected with a Leica DFC480 camera on a phase-contrast microscope equipped with a 10 × objective at room temperature. The free area of the wound was measured by image software. Supplementary Figure S1. Wound healing assay to detect the cell migration influenced by different peptides.

HUVEC cells [2] = experiment: Cell viability (CCK8) assay, HUVEC; format: cell-based, human
Experimental: (§1) All reagents were purchased from Gibco. All these cells were routinely tested for mycoplasma contamination and tested negative and maintained in a humidified incubator containing 5% CO2 at 37 °C. Cell viability for different cell lines were measured by cell counting kit-8 (CCK8) assays. The cells were incubated on a 96-well plate for 24 h in growth medium prior to drug treatment. […] Then CCK8 (10 μL) was added and the cells were incubated for 1 h at 37 °C with 5% CO2. Absorbance was measured with a microplate reader (Bio-Rad) at a wavelength of 450 nm.

[3] = Therapeutic safety in VX2 tumor-bearing rabbits (organ H&E, serum biochemistry); details: before and 1, 3, 7 days after treatment; 4 mg/kg in lipiodol via TAE
Experimental: Twenty-four VX2 tumor-burdened rabbits were evenly divided into four groups. After fasting for 12 h, the rabbits were anesthetized by intravenous injection of pentobarbital sodium solution (2 wt.%, 30 mg/kg). The rabbit’s right femoral artery was dissected and a 4-F Cobra catheter (Cook, Inc., Bloomington, Indiana) was inserted into the celiac artery, hepatic arteriography was then performed under the guidance of digital subtraction angiography (DSA), and a 2.7-F coaxial microcatheter (Terumo, Tokyo, Japan) was super-selectively inserted into the tumor donor branch subsequently. The emulsion of drugs and lipiodol were slowly injected into the tumor-feeding artery through the above microcatheter at a speed of 0.5 mL/min. […] After obtaining all DSA images, the sheaths and catheters were removed.
Seven days after treatment, the liver tumors, hearts, lungs, kidneys and spleens were harvested and fixed in 4% phosphate-buffered paraformaldehyde, the specimens were embedded in paraffin blocks and cut into 5‐μm‐thick sections. Following the manufacturer’s guidelines, the sections were stained with haematoxylin and eosin (H&E) for the evaluation of organ toxicity and tumor necrosis, Ki-67 staining and transfer-mediated dUTP nick end labeling (TUNEL) technique were used to detect tumor proliferation and apoptosis, respectively.
Blood samples were collected before treatment and at 1, 3, 7 days after treatment. The blood samples were stood at room temperature for 30 min, and the serum was obtained by centrifugation (room temperature, 8000 rpm, 10 min) for assessment of alanine aminotransferase (ALT), aspartate aminotransferase (AST), total bilirubin (TBIL) and creatinine (CREA). The assays were performed using the commercially ready-made kits following the manufacturers’ instructions.

Huh7 cells = experiment: Cell viability (CCK8) assay, Huh7; format: cell-based, human; details: for IC50: CCK8, 48 h treatment in medium with 5% FBS, absorbance 450 nm, mean ± SD, read-out: IC50, cytotoxicity in Huh7 cells
Experimental: as §1

HUVEC cells [4] = experiment: Annexin V-FITC/PI cell apoptosis assay, HUVEC; format: cell-based, human; details: 80 μM, 24 h, Annexin V-PI FACS
Experimental: The improved proapoptotic activity of QR-KLU was further confirmed by Annexin V-PI staining through FACS. Viable cells, early apoptotic cells, necrotic cells, late apoptotic cells were represented by Q4, Q3, Q2 and Q1 respectively. […] Besides, QR-KLU induced cell apoptosis in a dose-dependent manner. […] The percentage of apoptotic cells in KLU peptide at 20 μM were about 25% in both Huh7 cells and HUVEC cells.
(§2) The apoptosis assay was performed according to the manufacturer’s instructions using an Annexin V: Fluorescein Isothiocyanate (FITC) Apoptosis Detection Kit I (BD Pharmingen™). Briefly, Huh 7 or HUVEC cells were seeded in a 12-well plate and allowed to grow for 24 h in medium with 10% FBS. Then, the cells were treated with the different peptides in medium with 5% FBS for 24 h’ incubation. The cells were harvested with 0.25% trypsin/EDTA, washed twice with PBS and suspended in 1 × binding buffer. The suspended cells were treated with FITC-labeled Annexin V and propidium iodide (PI) as the protocol indicated and then analyzed by flow cytometry to determine the apoptotic cells. The cells with positive fluorescence intensity signals for both FITC and PI were used for the apoptotic cell count.
Supplementary Figure S2. Cell apoptosis of HUVEC induced by different peptides. HUVEC cells were treated with PBS, 80μM QR, 20μM KLU, 5μM QR-KLU, 10μM QR-KLU for 24 hours before detection by FACS.

Huh 7 cells = details: 80 μM, 24 h, Annexin V-PI FACS
Experimental: Viable cells, early apoptotic cells, necrotic cells, late apoptotic cells were represented by Q4, Q3, Q2 and Q1 respectively.
as §2

Compound | mean tumor volume at 7 days after TAE procedure (VX2 liver tumor) [mm^3] | tumor growth rate (V7/V0 × 100%) (VX2 liver tumor) | mean proportion of apoptotic cells in tumor (TUNEL) (VX2 liver tumor) | mean proportion of proliferating cells in tumor (Ki67) (VX2 liver tumor) | mean tumor necrosis rate (VX2 liver tumor) | mean tumor volume one day before TAE procedure (VX2 liver tumor) [mm^3] | cell migration of HUVEC (wound epithelial gap) (HUVEC cells [1]; 20 μM) | IC50 (HUVEC cells [2]; CCK8, 48 h treatment in medium with 5% FBS, absorbance 450 nm, mean ± SD, read-out: IC50, cytotoxicity in HUVEC cells) [µM] | liver and renal toxicity (ALT, AST, TBIL, CREA in serum) [3] | IC50 (Huh7 cells) [µM] | cell proliferation or migration of HUVEC (wound healing) (HUVEC cells [1]; 80 μM) | cellular toxicity in HUVEC cells (HUVEC cells [2]; CCK8, 48 h, up to 80 μM) | proapoptotic effect in HUVEC cells (HUVEC cells [4]) | cellular toxicity in Huh7 cells (Huh7 cells; CCK8, 48 h, up to 80 μM) | proapoptotic effect in Huh 7 cells (Huh 7 cells) | IC50 (Huh7 cells; Homo sapiens, Huh-7) [µM]
CC(=O)N[C@@H](CCCCN)C(=O)N[C@@H](CC(C)C)C(=O)NC(C)(C)C(=O)N[C@@H](CCCCN)C(=O)N[C@@H](CC(C)C)C(=O)NC(C)(C)C(=O)N[C@@H](CCCCN)C(=O)N[C@@H](CCCCN)C(=O)N[C@@H](CC(C)C)C(=O)NC(C)(C)C(=O)N[C@@H](CCCCN)C(=O)N[C@@H](CC(C)C)C(=O)NC(C)(C)C(=O)N[C@@H](CCCCN)C(N)=O [KLU] (Ac-KL[Aib]KL[Aib]KKL[Aib]KL[Aib]K-NH2) | 1321.4 ± 210.4 | significantly lower than that of the NS group | significantly higher than that in NS group | significantly lower than that in NS group | 79.5% ± 8.0 | 991.8 ± 114.2 | the wound epithelial gap was unchanged or even bigger | 33.8 ± 0.98 | no significant liver or renal toxicity | 36.3 ± 2.7 |  |  |  |  |  | 
Ac-QKRKRKKSRYKS-NH2 [QR] |  |  |  |  |  |  |  |  |  |  | not affected | negligible toxicity | didn’t show obvious proapoptotic effect | negligible toxicity | didn’t show obvious proapoptotic effect | 
COc1cccc2c1C(=O)c1c(O)c3c(c(O)c1C2=O)C[C@@](O)(C(=O)CO)C[C@@H]3O[C@H]1C[C@H](N)[C@H](O)[C@H](C)O1 [DOX, doxorubicin] | 1382.9 ± 563.7 | significantly lower than that of the NS group | significantly higher than that in NS group | significantly lower than that in NS group | 81.4% ± 2.3 | 889.0 ± 317.7 |  |  |  |  |  |  |  |  |  | 0.243 ± 0.076
